Data set [1] concerns the target T1, Proto-oncogene tyrosine-protein kinase receptor Ret (Homo sapiens, UniProt P07949). Description: Inhibition of human RET kinase using IGF1Rtide as substrate incubated for 40 mins and measured by ADP-Glo assay. Background: ADP-Glo first removes unused ATP, then detects ADP through luciferase.
Data set [2] in a line: Drug degradation in 10 mM GSH after 20 hrs measured by LC-MS analysis. The settings on record: 10000 µM. Type of data set: ADME.
Data set [3] is described as follows: Thermal stability of compound in DMSO assessed as half-life. Type of data set: physicochemical.
Data set [4] can be described thus: Thermal stability of compound in water assessed as half-life. The class given is physicochemical.
The target of data set [5] is T1, Proto-oncogene tyrosine-protein kinase receptor Ret. Briefly: Inhibition of full-length RET kinase expressed in human HEK293 cells and measured by NanoBRET assay. Type of data set: cell-based. Background: In BRET a luciferase serves as donor, and the signal depends on an acceptor being close.

T1 sequence (P07949 whole entry): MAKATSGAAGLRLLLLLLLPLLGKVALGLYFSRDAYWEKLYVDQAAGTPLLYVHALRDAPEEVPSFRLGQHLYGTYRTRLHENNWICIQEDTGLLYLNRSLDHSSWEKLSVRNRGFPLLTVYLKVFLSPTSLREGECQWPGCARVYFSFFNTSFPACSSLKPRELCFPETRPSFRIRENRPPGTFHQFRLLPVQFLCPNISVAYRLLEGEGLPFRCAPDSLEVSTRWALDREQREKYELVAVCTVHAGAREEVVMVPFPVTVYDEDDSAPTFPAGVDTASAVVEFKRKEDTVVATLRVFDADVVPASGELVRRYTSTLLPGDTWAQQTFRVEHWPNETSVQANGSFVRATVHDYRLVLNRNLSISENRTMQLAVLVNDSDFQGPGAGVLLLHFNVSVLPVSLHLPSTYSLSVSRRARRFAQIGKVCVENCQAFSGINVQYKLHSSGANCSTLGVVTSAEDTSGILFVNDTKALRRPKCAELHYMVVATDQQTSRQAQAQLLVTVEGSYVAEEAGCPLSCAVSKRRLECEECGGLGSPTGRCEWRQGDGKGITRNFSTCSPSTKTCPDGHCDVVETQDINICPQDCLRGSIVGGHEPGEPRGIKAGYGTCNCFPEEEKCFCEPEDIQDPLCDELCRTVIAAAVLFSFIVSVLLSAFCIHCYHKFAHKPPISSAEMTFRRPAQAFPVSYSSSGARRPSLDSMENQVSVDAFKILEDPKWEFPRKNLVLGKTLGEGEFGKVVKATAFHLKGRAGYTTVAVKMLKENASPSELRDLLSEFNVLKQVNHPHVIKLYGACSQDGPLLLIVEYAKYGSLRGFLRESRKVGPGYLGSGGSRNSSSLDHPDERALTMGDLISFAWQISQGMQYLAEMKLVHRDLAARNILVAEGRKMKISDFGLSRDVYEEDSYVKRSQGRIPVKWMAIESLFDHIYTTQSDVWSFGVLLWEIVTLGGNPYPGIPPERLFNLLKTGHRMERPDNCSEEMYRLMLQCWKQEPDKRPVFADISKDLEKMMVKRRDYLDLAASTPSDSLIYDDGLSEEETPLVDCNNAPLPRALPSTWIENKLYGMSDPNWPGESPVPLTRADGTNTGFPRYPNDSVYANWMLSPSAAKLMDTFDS

The compound `CN1CCN(Cc2ccc(NC(=O)c3cccc(/C=C/c4cnc5ccccc5c4Nc4ccccc4)c3)cc2C(F)(F)F)CC1` had an IC50 in data set [1] of 2300 nM.
On the same count and under the same terms, the figure for `CC(C)c1cccc2cc(/C=C\c3cccc(C(=O)Nc4ccc(CN5CCN(C)CC5)c(C(F)(F)F)c4)c3)cnc12` is greater than 500000 nM.
Regarding `CN1CCN(Cc2ccc(NC(=O)c3ccc(F)c(/N=N/c4cnc5ccccc5c4)c3F)cc2C(F)(F)F)CC1`, the Stability entry in data set [2] is “Stable”. The midpoint of inhibition in data set [1], the IC50, lay at 11 nM. Also, the half-life is 32.5 days in data set [3] and 1.58 days in data set [4].
The compound `CN1CCN(Cc2ccc(NC(=O)c3cccc(/C=C/c4cnc5ccccc5c4N4CCCC4)c3)cc2C(F)(F)F)CC1` came in with an IC50 in data set [1] of 66 nM.
In data set [1], `CN1CCN(Cc2ccc(NC(=O)c3cccc(/C=C/c4cnc5ccccc5c4N(C)C)c3)cc2C(F)(F)F)CC1` registered a half-inhibitory concentration (IC50) of 98 nM.
In the case of `CN1CCN(Cc2ccc(NC(=O)c3cccc(/N=N/c4cnc5ccccc5c4)c3)cc2C(F)(F)F)CC1`, the Stability result in data set [2] is recorded as “Stable”. The concentration for half-maximal inhibition (IC50) in data set [1] came to 9.5 nM. Besides, the half-life was 8.67 days in data set [3] and 9.04 days in data set [4].
Consider `CCCc1cccc2cc(/C=C\c3cccc(C(=O)Nc4ccc(CN5CCN(C)CC5)c(C(F)(F)F)c4)c3)cnc12`, for which, in data set [1], the IC50 is greater than 500000 nM.
On the same count and under the same terms, the figure for `CN1CCN(Cc2ccc(NC(=O)c3cccc(/C=C\c4cnc5ccccc5c4)c3)cc2C(F)(F)F)CC1` is 900 nM.
Still for that read-out and setting: the figure for `CCc1cccc2cc(/C=C\c3cccc(C(=O)Nc4ccc(CN5CCN(C)CC5)c(C(F)(F)F)c4)c3)cnc12` is 25000 nM.
`COc1c(/N=N\c2cccc(C(=O)Nc3ccc(CN4CCN(C)CC4)c(C(F)(F)F)c3)c2)cnc2ccccc12`: the IC50 in data set [1] was 363 nM; in data set [5], 3890 nM.
In turn, `CN1CCN(Cc2ccc(NC(=O)c3cccc(/C=C/c4cnc5ccccc5c4)c3)cc2C(F)(F)F)CC1` showed an IC50 in data set [1] of 7.8 nM.
`CN1CCN(Cc2ccc(NC(=O)c3cccc(/C=C\c4cnc5ccccc5c4Nc4ccccc4)c3)cc2C(F)(F)F)CC1`: it took 49000 nM to reach half-maximal inhibition in data set [1] (IC50).
Still for that read-out and setting: the figure for `CC(C)n1nc(-c2ccc(NC(=O)Nc3cc(C(F)(F)F)ccc3F)cc2)c2c(N)ncnc21` is 1.3 nM; for `COc1c(/C=C\c2cccc(C(=O)Nc3ccc(CN4CCN(C)CC4)c(C(F)(F)F)c3)c2)cnc2ccccc12` it is 1800 nM.
Same read-out and setting: the figure for `Cc1cccc2cc(/C=C\c3cccc(C(=O)Nc4ccc(CN5CCN(C)CC5)c(C(F)(F)F)c4)c3)cnc12` is 12600 nM.
With `COc1c(/N=N/c2cccc(C(=O)Nc3ccc(CN4CCN(C)CC4)c(C(F)(F)F)c3)c2)cnc2ccccc12`, the figures for the IC50 in data set [1] and in data set [5] were 24 nM and 920 nM, respectively. Also, the half-life in data set [3] is 12.6 days; in data set [4], 16.8 days.
The compound `CN1CCN(Cc2ccc(NC(=O)c3cccc(/C=C\c4cnc5ccccc5c4N(C)C)c3)cc2C(F)(F)F)CC1` came in with an IC50 in data set [1] of 2400 nM.
For `CC(C)c1cccc2cc(/C=C/c3cccc(C(=O)Nc4ccc(CN5CCN(C)CC5)c(C(F)(F)F)c4)c3)cnc12`, in data set [1], the midpoint of inhibition, the IC50, lay at 9800 nM.
On the same count and under the same terms, the figure for `CN1CCN(Cc2ccc(NC(=O)c3cccc(/N=N\c4cnc5ccccc5c4)c3)cc2C(F)(F)F)CC1` is 15 nM; for `CN1CCN(Cc2ccc(NC(=O)c3cccc(/C=C\c4cnc5ccccc5c4N4CCCC4)c3)cc2C(F)(F)F)CC1` it is 2200 nM.
Consider `CN1CCN(Cc2ccc(NC(=O)c3cccc(/N=N/c4cnc5[nH]ccc5c4)c3)cc2C(F)(F)F)CC1`, for which the Stability result in data set [2] was “Stable”. This compound showed an IC50 in data set [1] of 3 nM. In addition, the half-life in data set [3] is 15.7 days; in data set [4], 26.2 days.
In turn, `CCCc1cccc2cc(/C=C/c3cccc(C(=O)Nc4ccc(CN5CCN(C)CC5)c(C(F)(F)F)c4)c3)cnc12` yielded an IC50 in data set [1] of 5600 nM.
In the case of `CN1CCN(Cc2ccc(NC(=O)c3ccc(F)c(/N=N\c4cnc5ccccc5c4)c3F)cc2C(F)(F)F)CC1`, the IC50 in data set [1] amounted to 17 nM. Besides, the half-life in data set [4] is 1.58 days.
Take `Cc1cccc2cc(/C=C/c3cccc(C(=O)Nc4ccc(CN5CCN(C)CC5)c(C(F)(F)F)c4)c3)cnc12`: the midpoint of inhibition in data set [1], the IC50, lay at 257 nM.
In the case of `CCc1cccc2cc(/C=C/c3cccc(C(=O)Nc4ccc(CN5CCN(C)CC5)c(C(F)(F)F)c4)c3)cnc12`, the IC50 in data set [1] was found to be 1700 nM.
In turn, `COc1c(/C=C/c2cccc(C(=O)Nc3ccc(CN4CCN(C)CC4)c(C(F)(F)F)c3)c2)cnc2ccccc12` showed an IC50 in data set [1] of 12.4 nM.

The IC50 is the concentration that gives 50% inhibition. Lower therefore signals higher potency. In general, half-life refers to the time needed for the level to fall by half in the phase considered.

Values taken from ChEMBL document CHEMBL5154807, “Design and development of photoswitchable DFG-Out RET kinase inhibitors” (Eur J Med Chem, 2022).
